Source: US20160213657A1, “PHARMACEUTICAL COMPOSITION FOR TREATMENT AND/OR PREVENTION OF PULMONARY DISEASE” (UBE INDUSTRIES, LTD., priority 2013, published 2016)
Like-named read-outs stand apart in the source and are kept apart here.

Key:
[1] = system: LPS-induced TNFα production of human peripheral blood mononuclear cells; assay: Test of inhibition of LPS-induced TNFα production using human peripheral blood mononuclear cells; assay type: cell-based; conditions: read-out: IC50 value (nM) of TNFα production inhibitory action of human PBMC
Procedure: Test of Inhibition of LPS-Induced TNFα Production Using Human Peripheral Blood Mononuclear Cells
Peripheral blood collected in the presence of heparin from healthy subjects was diluted two-fold with PBS containing 2 (V/V) % FBS. Hemocyte separation solution (Ficoll Paque™, manufactured by GE Healthcare Science) was added to SepMate™-50 (manufactured by […] Technologies Inc.) followed by layering the diluted blood thereon. A peripheral blood mononuclear cell (hereinafter abbreviated as PBMC) layer was recovered by centrifuging for 10 minutes under conditions of 20° C. and 1200×g. The resulting PBMCs were further centrifuged and washed twice followed by suspending in RPMI1640 medium containing 1 (V/V) % FBS for use in the following test.
A test of inhibition of LPS-induced TNFα production was performed by partially modifying the method of Mary et al. (Journal of Pharmacology and Experimental Therapeutics, 284, 420 (1998)). 185 μL of PBMC suspension prepared to a final concentration of 5×10^5 cells/mL was added to a 96-well plate, subsequently 10 μL of RPMI1640 medium, containing 1 (V/V) % DMSO in which a test compound was dissolved, was added to each well (DMSO final concentration: 0.05 (V/V) %). RPMI1640 medium containing 1 (V/V) % DMSO was similarly added to a well to which test compounds had not been added. After incubating for 1 hour in a carbon dioxide gas incubator, 5 μL of RPMI1640 medium containing LPS (L2880-500MG, manufactured by Sigma) was added to each well (LPS final concentration: 100 ng/mL). 5 μL of RPMI1640 medium was added to a non-LPS stimulation well. After culturing for about 18 hours in a carbon dioxide gas incubator, the culture supernatant was recovered. The recovered culture supernatant was stored at −20° C. until measurement of TNFα content.
A sandwich ELISA kit (Quantikine DTA00c, manufactured by R&D Systems) was used to measure TNFα content. The TNFα content of each sample was calculated from a standard curve of E. coli-derived human recombinant TNF provided with the kit. TNFα production inhibition rate at each test compound concentration was calculated based on a value of 100% for the amount of TNFα produced by LPS in the case of only adding DMSO. The concentration of test compound that inhibited TNFα production by 50% was calculated as the IC50 value (nM) from the relationship between concentration of the added test compound and TNFα production inhibition rate of the test compound.

human EP2 receptor = human EP2 receptor (Homo sapiens, UniProt P43116); assay: Measurement of EP2 receptor binding action ([3H]prostaglandin E2 displacement)
Procedure: Measurement of EP2 Receptor Binding Action
The membrane fraction was collected on glass fiber filter paper (GF/B, manufactured by Whatman) using a cell harvester (M30R, manufactured by Brandel), and after washing with a buffer solution (10 mM MES-KOH (pH 6.0), 10 mM MgCl2), radioactivity was measured with a liquid scintillation analyzer (2000CA, manufactured by Packard).
Ki=IC50/(1+([^3H]prostaglandin E2 concentration/Kd))
Furthermore, the dissociation constant (Kd value) was calculated by Scatchard analysis.

[2] = system: neutrophil infiltration of the rat lung; assay: Inhibitory effect on neutrophil infiltration of rat lung (LPS intratracheal, BALF); assay type: in vivo; conditions: SD rats; approx. 0.1 mg/Kg intratracheally 1 hour prior to LPS; BALF 4 hours after LPS
Procedure: Inhibitory Effect on Neutrophil Infiltration of Rat Lung
A test of inhibition of neutrophil infiltration of the rat lung was performed by partially modifying the method of Spond et al. (Pulmonary Pharmacology and Therapeutics, 14, 157 (2001)). 25 μL (approx. 4 μg/Kg) of physiological saline solution containing LPS (L2880-500MG, manufactured by Sigma) (concentration: 0.04 mg/mL) was administered intratracheally under isoflurane inhalation anesthesia into SD rats fasted for about 16 hours (males, 7-8 weeks old, body weights: 240 g to 270 g (average: approx. 250 g), supplied by Charles River Laboratories, Japan). A Microsprayer™ (IA-1C-M, manufactured by PennCentury) was used for intratracheal administration.
Dosing solutions of the test compounds were prepared by dissolving the test compounds in a 0.1 mol/L or 1 mol/L aqueous sodium hydroxide solution followed by adding medium and neutralizing (final test compound concentration: 1 mg/mL). PBS or phosphate buffer solution (20 mM, pH=7.4) was used for the medium. 25 μL (approx. 0.1 mg/Kg) of the test compound solution prepared in this manner was administered intratracheally in the same manner as LPS administration 1 hour prior to administration of LPS. Medium was administered to a control group. Furthermore, 6 animals were used in the test compound dosing groups and control group, respectively. […]
The number of white blood cells present in the BALF suspension was measured using a multiparameter automated hematology analyzer (KX-21, manufactured by Sysmex). […] Next, after staining the cells using the Diff-Quik staining kit (Cat. No. 16920, manufactured by Sysmex), the number of neutrophils present among 300 white blood cells was measured under a light microscope (BH-2, manufactured by Olympus) followed by calculating the ratio of neutrophils to white blood cells (NR=the number of neutrophils among 300 white blood cells/300). […]
The number of neutrophils present in the BALF cell suspension was measured using a multiparameter automated hematology analyzer (XT-2000iV, manufactured by Sysmex). […]

[3] = membrane fraction of HEK293 cells expressing human EP2 receptor, [3H]prostaglandin E2 10 nM, 30° C., 60 minutes, read-out: Ki value (nM) of EP2 receptor binding action

Sequence of human EP2 receptor (P43116 whole entry): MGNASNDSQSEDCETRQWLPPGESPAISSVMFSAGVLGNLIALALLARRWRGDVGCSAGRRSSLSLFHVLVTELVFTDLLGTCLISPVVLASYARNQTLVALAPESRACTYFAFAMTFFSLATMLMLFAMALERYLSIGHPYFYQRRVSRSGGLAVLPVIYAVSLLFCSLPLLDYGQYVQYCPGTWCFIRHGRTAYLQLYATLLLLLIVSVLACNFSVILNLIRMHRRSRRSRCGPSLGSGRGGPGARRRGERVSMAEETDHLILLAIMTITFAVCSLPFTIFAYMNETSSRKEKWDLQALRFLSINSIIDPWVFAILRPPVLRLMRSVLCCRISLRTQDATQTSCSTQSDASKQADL

| SMILES | IC50 ([1]; Homo sapiens, PBMC, 18 h) [nM] | Ki (human EP2 receptor; [3]) [nM] | Inhibition rate of pulmonary neutrophil infiltration [2] [%] | Ki (human EP2 receptor) [nM] | IC50 ([1]; LPS 100 ng/mL, culture about 18 hours, TNFα by ELISA) [nM] |
| --- | --- | --- | --- | --- | --- |
| CC#Cc1cccc(-c2ccc(CN(Cc3cccc(NCC(=O)O)n3)S(=O)(=O)c3cccs3)cc2)c1 [Example 14, (6-{[3′-(1-Propynyl)biphenyl-4-ylmethyl](thiophen-2-ylsulfonyl)-aminomethyl}pyridin-2-ylamino)acetic acid] | 13 | 0.9 | 65 |  |  |
| CC#Cc1cccc(-c2ccc(CN(Cc3cccc(NCC(=O)O)n3)S(=O)(=O)c3cccnc3)cc2)c1 [Example 6, (6-{[3′-(1-Propynyl)biphenyl-4-ylmethyl](pyridin-3-ylsulfonyl)aminomethyl}-pyridin-2-ylamino)acetic acid] | 9.4 |  |  | 0.75 |  |
| CCCc1cccc(-c2ccc(CN(Cc3cccc(NCC(=O)O)n3)S(=O)(=O)c3ccccn3)cc2)c1 [Comparative Example 1, {6-[(3′-Propylbiphenyl-4-ylmethyl)(pyridin-2-ylsulfonyl)aminomethyl]pyridin-2-ylamino}acetate, reference compound] |  | 1.1 |  |  | > 300 |
| CCOc1cccc(-c2ccc(CN(Cc3cccc(NCC(=O)O)n3)S(=O)(=O)c3cccs3)cc2)c1 [Example 11, {6-[(3′-Ethoxybiphenyl-4-ylmethyl)(thiophen-2-ylsulfonyl)aminomethyl]-pyridin-2-ylamino}acetic acid] | 23 |  |  |  |  |
| CC#Cc1cccc(-c2ccc(CN(Cc3cccc(NCC(=O)O)n3)S(=O)(=O)c3ccsc3)cc2)c1 [Example 18, (6-{[3′-(1-Propynyl)biphenyl-4-ylmethyl](thiophen-3-ylsulfonyl)-aminomethyl}pyridin-2-ylamino)acetic acid] | 3.2 | 0.99 |  |  |  |
| CCOc1cccc(-c2ccc(CN(Cc3cccc(NCC(=O)O)n3)S(=O)(=O)c3cccnc3)cc2)c1 [Example 9, {6-[(3′-Ethoxybiphenyl-4-ylmethyl)(pyridin-3-ylsulfonyl)aminomethyl]-pyridin-2-ylamino}acetic acid] |  |  |  | 0.8 |  |
| CCOc1cccc(-c2ccc(CN(Cc3cccc(NCC(=O)O)n3)S(=O)(=O)c3ccccn3)cc2)n1 [Example 12, (6-{[4-(6-Ethoxypyridin-2-yl)benzyl](pyridin-2-ylsulfonyl)aminomethyl}-pyridin-2-ylamino)acetic acid] | 16 |  |  |  |  |
| CC#Cc1cccc(-c2ccc(CN(Cc3cccc(NCC(=O)O)n3)S(=O)(=O)c3ccccc3)cc2)c1 [Example 16, (6-{(Benzenesulfonyl)[3′-(1-propynyl)biphenyl-4-ylmethyl]aminomethyl}-pyridin-2-ylamino)acetic acid] | 15 |  | 66 | 0.95 |  |
| CC=Cc1cccc(-c2ccc(CN(Cc3cccc(NCC(=O)O)n3)S(=O)(=O)c3ccccn3)cc2)c1 [Example 2] |  | 0.53 |  |  |  |
| CCOc1cccc(-c2ccc(CN(Cc3cccc(NCC(=O)O)n3)S(=O)(=O)c3ccccn3)cc2)c1 [Example 7, {6-[(3′-Ethoxybiphenyl-4-ylmethyl)(pyridin-2-ylsulfonyl)aminomethyl]-pyridin-2-ylamino}acetic acid] | 20 |  |  | 0.61 |  |
| CCOc1cccc(-c2ccc(CN(Cc3cccc(NCC(=O)O)n3)S(=O)(=O)c3ccccc3)cc2)c1 [Example 10, {6-[(Benzenesulfonyl)(3′-ethoxybiphenyl-4-ylmethyl)aminomethyl]pyridin-2-ylamino}acetic acid] | 18 |  |  | 0.97 |  |
| CC#Cc1cccc(-c2ccc(CN(Cc3cccc(NCC(=O)O)n3)S(=O)(=O)c3ccccn3)cc2)c1 [Example 4, (6-{[3′-(1-Propynyl)biphenyl-4-ylmethyl](pyridin-2-ylsulfonyl)aminomethyl}-pyridin-2-ylamino)acetic acid] | 3.3 | 0.8 | 71 |  |  |
